The source made the active and inactive calls. No cut-off for these calls is given here.
Columns and labels:
Haemonchus contortus = assay: Nematocidal activity against Haemonchus contortus Haecon 5 strain isolated from helminth-free Merino weaner sheep at 12.5 to 100 uM after 6 days by larval development assay; format: functional, organism-based
[1] = Cytotoxicity against human HT-29 cells after 72 hrs by MTT assay; format: cell-based
[2] = Cytotoxicity against human SW480 cells after 72 hrs by MTT assay; format: cell-based
[3] = Cytotoxicity against human MCF7 cells after 72 hrs by MTT assay; format: cell-based
[4] = Cytotoxicity against human A2780 cells after 72 hrs by MTT assay; format: cell-based
[5] = Cytotoxicity against human H460 cells after 72 hrs by MTT assay; format: cell-based; details: NCI-H460 cells
[6] = Cytotoxicity against human A431 cells after 72 hrs by MTT assay; format: cell-based, A-431
[7] = Cytotoxicity against human DU145 cells after 72 hrs by MTT assay; format: cell-based, DU-145
[8] = Cytotoxicity against human BE(2)-C cells after 72 hrs by MTT assay; format: cell-based
[9] = Cytotoxicity against human SJ-G2 cells after 72 hrs by MTT assay; format: cell-based

| Compound | inhibition (Haemonchus contortus) | GI50 at 72 h [1] | GI50 at 72 h [2] | GI50 at 72 h [3] | GI50 at 72 h [4] | GI50 at 72 h [5] | GI50 at 72 h [6] | GI50 at 72 h [7] | GI50 at 72 h [8] | GI50 at 72 h [9] |
| --- | --- | --- | --- | --- | --- | --- | --- | --- | --- | --- |
| CCCCCNC(=O)[C@H]1N(CCCN(C)C)C(=O)C2=C(CCCC)[C@H]3C=C[C@]21O3 | inactive |  |  |  |  |  |  |  |  |  |
| O=C(O)C1C(C(=O)Nc2ccc(Br)cc2)[C@H]2CC[C@@H]1O2 (stereo partly specified) | inactive | 10 µM | 10 µM | 10 µM | 10 µM | 10 µM | 10 µM | 10 µM | 10 µM | 10 µM |
| O=C1[C@@H]2[C@H](C(=O)N1CCOP(=O)(OCC(Cl)(Cl)Cl)OCC(Cl)(Cl)Cl)[C@H]1CC[C@@H]2O1 |  | > 75 µM | > 75 µM | > 75 µM | > 75 µM | > 75 µM | > 75 µM | > 75 µM | > 75 µM | > 75 µM |
| CCCCCCCCCCNC(=O)C1C(C(=O)O)[C@@H]2CC[C@H]1O2 (stereo partly specified) | inactive | 10 µM | 10 µM | 10 µM | 10 µM | 10 µM | 10 µM | 10 µM | 10 µM | 10 µM |
| CCCCCCCCNC(=O)C1C(C(=O)O)[C@@H]2CC[C@H]1O2 (stereo partly specified) | inactive | 10 µM | 10 µM | 10 µM | 10 µM | 10 µM | 10 µM | 10 µM | 10 µM | 10 µM |
| O=C(O)[C@H](Cc1ccc(O)cc1)N1C(=O)[C@@H]2[C@H](C1=O)[C@H]1CC[C@@H]2O1 |  | > 75 µM | > 75 µM | > 75 µM | > 75 µM | > 75 µM | > 75 µM | > 75 µM | > 75 µM | > 75 µM |
| O=C(O)CCCCCCCNC(=O)C1C(C(=O)O)[C@@H]2CC[C@H]1O2 (stereo partly specified) | inactive | 10 µM | 10 µM | 10 µM | 10 µM | 10 µM | 10 µM | 10 µM | 10 µM | 10 µM |
| O=C(O)C1C(C(=O)Nc2ccc(O)cc2)[C@H]2CC[C@@H]1O2 (stereo partly specified) | inactive | 10 µM | 10 µM | 10 µM | 10 µM | 10 µM | 10 µM | 10 µM | 10 µM | 10 µM |
| CCCCCNC(=O)[C@@H]1N(Cc2ccccc2)C(=O)C2=C(C)[C@H]3C=C[C@]21O3 | inactive |  |  |  |  |  |  |  |  |  |
| CCCCCNC(=O)[C@@H]1N(CCCN(C)C)C(=O)C2=C(CCCC)[C@H]3C=C[C@]21O3 | inactive |  |  |  |  |  |  |  |  |  |
| Cc1cc(C)c(NC(=O)C2C(C(=O)O)[C@@H]3CC[C@H]2O3)c(C)c1 (stereo partly specified) | inactive | 10 µM | 10 µM | 10 µM | 10 µM | 10 µM | 10 µM | 10 µM | 10 µM | 10 µM |
| CCCNC(=O)C1C(C(=O)O)[C@@H]2CC[C@H]1O2 (stereo partly specified) | inactive | 10 µM | 10 µM | 10 µM | 10 µM | 10 µM | 10 µM | 10 µM | 10 µM | 10 µM |
| O=C(O)C1C(C(=O)NCCCc2ccccc2)[C@H]2CC[C@@H]1O2 (stereo partly specified) | inactive | 10 µM | 10 µM | 10 µM | 10 µM | 10 µM | 10 µM | 10 µM | 10 µM | 10 µM |
| O=C1[C@@H]2[C@H](C(=O)N1c1ncccc1OCc1ccccc1)[C@H]1CC[C@@H]2O1 |  | > 75 µM | > 75 µM | > 75 µM | > 75 µM | > 75 µM | > 75 µM | > 75 µM | > 75 µM | > 75 µM |
| CCc1ccccc1NC(=O)C1C(C(=O)O)[C@@H]2CC[C@H]1O2 (stereo partly specified) | inactive | 10 µM | 10 µM | 10 µM | 10 µM | 10 µM | 10 µM | 10 µM | 10 µM | 10 µM |
| CCOC(=O)c1cn[nH]c1NC(=O)C1C(C(=O)O)[C@@H]2CC[C@H]1O2 (stereo partly specified) | inactive | 10 µM | 10 µM | 10 µM | 10 µM | 10 µM | 10 µM | 10 µM | 10 µM | 10 µM |
| COC(=O)CNC(=O)[C@H]1N(CCCCCO)C(=O)C2=C(C)[C@H]3C=C[C@]21O3 | inactive |  |  |  |  |  |  |  |  |  |
| C=CCNC(=O)C1C(C(=O)O)[C@@H]2CC[C@H]1O2 (stereo partly specified) | inactive | 10 µM | 10 µM | 10 µM | 10 µM | 10 µM | 10 µM | 10 µM | 10 µM | 10 µM |
| CCCCCCCCN1C(=O)C2=C(C)[C@H]3C=C[C@@]2(O3)[C@@H]1C(=O)NCC(=O)OCC | inactive |  |  |  |  |  |  |  |  |  |
| CCCCCCCCN1C(=O)C2=C(C)[C@H]3C=C[C@@]2(O3)[C@H]1C(=O)NCC(=O)OCC | inactive |  |  |  |  |  |  |  |  |  |
| CCCCCCCCCCCCCCN1C(=O)[C@@H]2[C@H](C1=O)[C@H]1CC[C@@H]2O1 | inactive |  |  |  |  |  |  |  |  |  |
| CCCCCCCCCCCCN1C(=O)[C@@H]2[C@H](C1=O)[C@H]1CC[C@@H]2O1 | inactive |  |  |  |  |  |  |  |  |  |
| CN(C)CCOc1ccccc1N1C(=O)[C@@H]2[C@H](C1=O)[C@H]1CC[C@@H]2O1 |  | > 75 µM | > 75 µM | > 75 µM | > 75 µM | > 75 µM | > 75 µM | > 75 µM | > 75 µM | > 75 µM |
| CCCCCCCCCCCCCCCCCCN1C(=O)[C@@H]2[C@H](C1=O)[C@H]1CC[C@@H]2O1 | inactive |  |  |  |  |  |  |  |  |  |
| CN(C)CCOc1ccc(N2C(=O)[C@@H]3[C@H](C2=O)[C@H]2CC[C@@H]3O2)cc1 |  | > 75 µM | > 75 µM | > 75 µM | > 75 µM | > 75 µM | > 75 µM | > 75 µM | > 75 µM | > 75 µM |
| CCCCCNC(=O)[C@H]1N(Cc2ccccc2)C(=O)C2=C(C)[C@H]3C=C[C@]21O3 | inactive |  |  |  |  |  |  |  |  |  |
| COC(=O)CNC(=O)[C@@H]1N(CCCCCO)C(=O)C2=C(C)[C@H]3C=C[C@]21O3 | inactive |  |  |  |  |  |  |  |  |  |
